Source: the NIST ThermoML archive (doi:10.1021/je030167i)
± gives the expanded uncertainty stated by the source.

Test: xn = mol fraction of the nth substance listed
Details: 101.3 kPa, Liquid

CC1CCCO1 (configuration not stated) [2-methyltetrahydrofuran] + CC(C)CCl
x2 = 0
Details | kinematic viscosity [m2/s] | mass density [kg/m3]
298.15 K | 5.59e-07 ± 2e-08 | 849.28 ± 0.49
313.15 K | 4.92e-07 ± 1.8e-08 | 834.01 ± 0.49

CC1CCCO1 (configuration not stated) [2-methyltetrahydrofuran] + CCCCCl
Details | kinematic viscosity, 298.15 K [m2/s] | kinematic viscosity, 313.15 K [m2/s] | mass density, 298.15 K [kg/m3] | mass density, 313.15 K [kg/m3]
x2 = 0 | 5.59e-07 ± 2e-08 | 4.92e-07 ± 1.8e-08 | 849.28 ± 0.49 | 834.01 ± 0.49
x2 = 0.0494 | 5.56e-07 ± 2e-08 | 4.88e-07 ± 1.8e-08 | 850.97 ± 0.48 | 835.48 ± 0.48
x2 = 0.1008 | 5.52e-07 ± 2e-08 | 4.85e-07 ± 1.8e-08 | 852.97 ± 0.47 | 837.19 ± 0.47
x2 = 0.203 | 5.43e-07 ± 1.9e-08 | 4.78e-07 ± 1.8e-08 | 856.41 ± 0.45 | 840.52 ± 0.45
x2 = 0.3004 | 5.35e-07 ± 1.9e-08 | 4.71e-07 ± 1.7e-08 | 859.76 ± 0.43 | 843.74 ± 0.44
x2 = 0.3963 | 5.27e-07 ± 1.9e-08 | 4.64e-07 ± 1.7e-08 | 862.73 ± 0.41 | 846.73 ± 0.42
x2 = 0.4969 | 5.18e-07 ± 1.9e-08 | 4.56e-07 ± 1.7e-08 | 865.86 ± 0.4 | 849.69 ± 0.4
x2 = 0.5976 | 5.09e-07 ± 1.8e-08 | 4.49e-07 ± 1.7e-08 | 869.09 ± 0.38 | 852.75 ± 0.38
x2 = 0.6993 | 5.01e-07 ± 1.8e-08 | 4.41e-07 ± 1.6e-08 | 872.11 ± 0.36 | 855.69 ± 0.36
x2 = 0.7993 | 4.93e-07 ± 1.8e-08 | 4.34e-07 ± 1.6e-08 | 874.9 ± 0.34 | 858.36 ± 0.35
x2 = 0.8988 | 4.85e-07 ± 1.8e-08 | 4.27e-07 ± 1.6e-08 | 878.01 ± 0.32 | 861.05 ± 0.33
x2 = 0.9483 | 4.82e-07 ± 1.8e-08 | 4.24e-07 ± 1.6e-08 | 879.23 ± 0.31 | 862.56 ± 0.32

CC(C)CCl [1-chloro-2-methylpropane] + CC1CCCO1
Details | kinematic viscosity, 298.15 K [m2/s] | kinematic viscosity, 313.15 K [m2/s] | mass density, 298.15 K [kg/m3] | mass density, 313.15 K [kg/m3]
x1 = 0.0484 | 5.56e-07 ± 2e-08 | 4.88e-07 ± 1.8e-08 | 850.43 ± 0.49 | 834.97 ± 0.49
x1 = 0.0999 | 5.52e-07 ± 2e-08 | 4.85e-07 ± 1.8e-08 | 852.07 ± 0.49 | 836.22 ± 0.49
x1 = 0.1962 | 5.44e-07 ± 1.9e-08 | 4.78e-07 ± 1.8e-08 | 854.44 ± 0.49 | 838.53 ± 0.49
x1 = 0.3105 | 5.35e-07 ± 1.9e-08 | 4.7e-07 ± 1.7e-08 | 857.3 ± 0.49 | 841.23 ± 0.49
x1 = 0.4006 | 5.29e-07 ± 1.9e-08 | 4.65e-07 ± 1.7e-08 | 859.25 ± 0.49 | 843.09 ± 0.49
x1 = 0.4775 | 5.23e-07 ± 1.9e-08 | 4.6e-07 ± 1.7e-08 | 860.99 ± 0.49 | 844.5 ± 0.49
x1 = 0.6006 | 5.15e-07 ± 1.9e-08 | 4.52e-07 ± 1.7e-08 | 863.58 ± 0.49 | 846.94 ± 0.49
x1 = 0.7031 | 5.08e-07 ± 1.8e-08 | 4.46e-07 ± 1.7e-08 | 865.6 ± 0.49 | 848.88 ± 0.49
x1 = 0.8026 | 5.03e-07 ± 1.8e-08 | 4.4e-07 ± 1.6e-08 | 867.49 ± 0.49 | 850.49 ± 0.49
x1 = 0.9059 | 4.97e-07 ± 1.8e-08 | 4.34e-07 ± 1.6e-08 | 869.22 ± 0.49 | 852.11 ± 0.49
x1 = 0.9506 | 4.95e-07 ± 1.8e-08 | 4.32e-07 ± 1.6e-08 | 870.2 ± 0.49 | 852.87 ± 0.49
x1 = 1 | 4.92e-07 ± 1.8e-08 | 4.29e-07 ± 1.6e-08 | 870.93 ± 0.49 | 853.51 ± 0.49

CC1CCCO1 (configuration not stated) [2-methyltetrahydrofuran] + CC(C)CO
Details | kinematic viscosity, 298.15 K [m2/s] | kinematic viscosity, 313.15 K [m2/s] | mass density, 298.15 K [kg/m3] | mass density, 313.15 K [kg/m3]
x2 = 0 | 5.59e-07 ± 2e-08 | 4.92e-07 ± 1.8e-08 | 849.28 ± 0.49 | 834.01 ± 0.49
x2 = 0.0397 | 5.85e-07 ± 2.1e-08 | 5.06e-07 ± 1.8e-08 | 847.52 ± 0.48 | 832.15 ± 0.48
x2 = 0.0951 | 6.17e-07 ± 2.2e-08 | 5.31e-07 ± 1.9e-08 | 844.97 ± 0.47 | 829.82 ± 0.47
x2 = 0.1999 | 6.87e-07 ± 2.3e-08 | 5.88e-07 ± 2.1e-08 | 840.08 ± 0.45 | 825.25 ± 0.46
x2 = 0.3008 | 7.77e-07 ± 2.6e-08 | 6.54e-07 ± 2.2e-08 | 835.46 ± 0.44 | 820.88 ± 0.44
x2 = 0.3982 | 8.96e-07 ± 2.9e-08 | 7.47e-07 ± 2.5e-08 | 830.71 ± 0.42 | 816.54 ± 0.43
x2 = 0.4988 | 1.04e-06 ± 3.3e-08 | 8.47e-07 ± 2.8e-08 | 825.72 ± 0.41 | 811.84 ± 0.41
x2 = 0.5992 | 1.26e-06 ± 3.9e-08 | 9.96e-07 ± 3.2e-08 | 820.51 ± 0.39 | 807.01 ± 0.4
x2 = 0.7013 | 1.58e-06 ± 4.9e-08 | 1.22e-06 ± 3.8e-08 | 815.04 ± 0.38 | 801.97 ± 0.39
x2 = 0.7995 | 2.06e-06 ± 6.2e-08 | 1.51e-06 ± 4.7e-08 | 809.54 ± 0.37 | 796.99 ± 0.38
x2 = 0.9048 | 2.93e-06 ± 8.6e-08 | 2.02e-06 ± 6.1e-08 | 803.45 ± 0.36 | 791.39 ± 0.37
x2 = 0.9557 | 3.55e-06 ± 1e-07 | 2.36e-06 ± 7.1e-08 | 800.39 ± 0.35 | 788.49 ± 0.36

CCCCCl [1-chlorobutane] + CC1CCCO1
x1 = 1
Details | kinematic viscosity [m2/s] | mass density [kg/m3]
298.15 K | 4.78e-07 ± 1.7e-08 | 880.62 ± 0.3
313.15 K | 4.21e-07 ± 1.6e-08 | 863.86 ± 0.31
